Data: PubChem BioAssay AID179 (DTP/NCI, 2004)
“And” between values parts separate entries of the source, which are not always exact repeats. Identical values can stand only once. The source made the active and inactive calls.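 Rule for the calls: active = compounds giving half or more protection of infected cells from virus-caused growth loss, again on retest; inactive = the rest.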 Where a SMILES comes first, the peptide text is derived from it.

System: CEM cells HIV-1 protection, formazan growth assay
Experiment: NCI AIDS Antiviral Assay
Details: for IC50: measured here: growth of uninfected CEM cells
Procedure, shortened: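 Steps: treat uninfected and HIV-1-infected human CEM cells at five drug levels; quantify growth by soluble formazan; retest any compound reaching 50% protection; classify actives from the retest.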

SMILES | EC50 | IC50 | outcome
NC(=O)C(=O)N/N=C(\CC1(O)C(=O)Nc2ccccc21)c1ccc2ccccc2c1 (stereo not given) | > 33.9 µM | > 33.9 µM | –
CC(=O)Nc1ccc(SC#N)c2c(NC(C)=O)cccc12 | – | – | inactive
CCOC(=O)c1ccc(NC(=O)O/N=C(/Cl)CCl)cc1 | > 200 µM | 18.6 µM | –
CCOC(=O)C1(C(=O)OCC)CC(=O)[C@@]2(C1)OCC[C@H]1OC(=O)C[C@H]12 | > 200 µM | > 200 µM | –
CC(C)CCC[C@@H](C)C1CCC2C3CCC4C[C@@H](CCC=C(c5cc(F)c(O)c(C(=O)O)c5)c5cc(F)c(O)c(C(=O)O)c5)CC[C@]4(C)C3CC[C@@]21C (stereo not given in full) | 21.9 µM | > 200 µM | –
N#Cc1ccccc1SSc1ccccc1C#N | > 200 µM | 11.7 µM | –
CCCCN1CC(=O)N2CCCC(c3ccccc3)N2C(=O)C1 (stereo not given) | > 794 µM | 347 µM | –
O=[N+]([O-])c1ccc(C2=Nn3c(nnc3-c3ccc(Cl)cc3)SC2)o1 | – | – | inactive
CCOC(=O)c1ccc(NC(=O)c2cccc3c(Nc4ccc(S(=O)(=O)Nc5cc(C)on5)cc4)c4ccccc4nc23)cc1 | > 200 µM | 4.57 µM | –
C/C=C(/CCO)[Si](C)(C)C | – | – | inactive
CC1(C)CCCC(C)(C)N1[P-]C(=O)[P-]N1C(C)(C)CCCC1(C)C.[C-]#[O+].[C-]#[O+].[C-]#[O+].[C-]#[O+].[C-]#[O+].[C-]#[O+].[Fe].[Fe] (stereo not given) | > 2.24 µM | > 2.24 µM | –
Cc1ccc(C2(O)c3cccc4cccc(c34)C2(O)c2ccc(C)cc2)cc1 (stereo not given) | > 200 µM | 13.5 µM | –
CN1CCN(CCCCN2c3ccccc3Sc3ccc(C(=O)c4ccccc4)cc32)CC1 | > 100 µM | 4.47 µM | –
N#CC(F)(F)C(F)(F)C(F)(F)C(F)(F)C(F)(F)C(F)(F)C(F)(F)F | > 200 µM | > 200 µM | –
Brc1ccc2c(c1)C1(c3cc(Br)ccc3-2)c2cc(Br)ccc2-c2ccc(Br)cc21 | > 40.7 µM | > 40.7 µM | –
Cc1cc(S(=O)(=O)NC(=NCCc2ccccc2)NN)c(S)cc1Cl | > 200 µM | 25.7 µM | –
COc1ccc(/C=C/C(=O)c2ccc3c(c2)OCO3)cc1OC | > 43.7 µM | 20.9 µM | –
Nc1ccccc1C(=O)/C=C/c1c(O)ccc2ccccc12 | – | – | inactive
COc1ccc2c(c1)CCC1C3(CCCC21C=O)OCCO3 (stereo not given) | > 166 µM | > 166 µM | –
CC(=O)N1N=C(c2ccc3ccccc3c2O)CC1c1cccs1 (stereo not given) | > 200 µM | 12 µM | –
CN(C)C=O.CN(C)C=O.CN1C(C(=O)Nc2ccccn2)=C([O-])c2ccccc2S1(=O)=O.CN1C(C(=O)Nc2ccccn2)=C([O-])c2ccccc2S1(=O)=O.[Cu+2] | – | – | inactive

SMILES | EC50 | IC50 | outcome
COc1ccc(NC(=S)N/N=C(/C)c2ccccn2)cc1 | > 0.2 µM | 0.115 µM | –
CCOC(=O)c1s/c(=N\Nc2nc3ccccc3cc2C2OCCO2)n(Cc2ccccc2)c1C | > 5.5 µM | > 5.5 µM | –
CCOP(=O)(OCC)C1C(=O)O[C@H]2CCCC[C@@H]12 (stereo not given in full) | – | – | inactive
O=[N+]([O-])c1cc(Cl)ccc1OCc1ccccc1 | – | – | inactive
C=CCN1/C(=C(\C#N)c2nc3ccccc3[nH]2)Sc2c1nc[nH]c2=O | > 10.7 µM | > 10.7 µM | –
Oc1cc(Cl)c(Cl)cc1Cl | – | – | inactive
O=C1C2CCC(N1c1ccc(F)cc1)n1c(=O)n(-c3ccccc3)c(=O)n12 (stereo not given) | – | – | inactive
Clc1ccc(C2SCc3nc4ccccc4n32)cc1 (stereo not given) | – | – | inactive
CC(=O)OCCn1c(Cc2ccc(C)cc2)nn(C(C)=O)c1=O | > 200 µM | > 200 µM | –
COc1ccc(OC)c(N=Nc2c(O)c3ccccc3[nH]c2=O)c1 | 47.9 µM | > 200 µM | –
CN1CC2(c3ccccc3)CN(C)CC(c3ccccc3)(C1)C2=O | > 112 µM | > 112 µM | –
Cc1ccc(N(C(=O)CC(=O)NN)C(=O)c2ccccc2Cl)cc1 | > 269 µM | > 269 µM | –
COc1cc2c(cc1OC)C13CCN4CC5=CCOC6CC(=O)N2C1C6C5CC43 (stereo not given) (tested in a mixture with another compound) | > 200 µM | 53.7 µM | –
C/C(=C\Cc1ccc(F)cc1)CCCCCC/C(C)=C/Cc1ccc(F)cc1 | > 200 µM | 22.4 µM | –
COc1ccc2c(c1)C(=O)CC1c3cnccc3C(=O)N21 (stereo not given) | > 200 µM | 115 µM | –
CN(C)c1ccc(C=C2C=CC=C2)cc1 | > 19.1 µM | > 19.1 µM | –
Nc1ccc2c(c1)nc1n2C(c2c(F)cccc2F)SC1 (stereo not given) | > 200 µM | 135 µM | –
O=S(=O)(CC1=NC2C=CC=CC2N=C1)NCc1ccccc1 (stereo not given) | – | – | inactive
COC(=O)C1C(C(=O)OC)C2(OC(c3ccc(Cl)cc3)=CC2=O)C12OC(c1ccc(Cl)cc1)=CC2=O (stereo not given) | > 200 µM | 4.27 µM | –
O=C1CSC(=S)N1Cc1ccncc1 | > 200 µM | 4.27 µM | –
N#C/C(N)=C(\C#N)N=CNc1ccc(N)cc1 | > 200 µM | > 100 µM | –

SMILES | EC50 | IC50 | outcome
c1ccc(CN2CCC3(N4CCOCC4)C(C2)N=NN3c2ccccc2)cc1 (stereo not given) | > 200 µM | 110 µM | –
COc1ccc(/C(C#N)=C/c2cccc(OC)c2OC)cc1 | > 200 µM | 28.2 µM | –
O=C1/C(=C/c2ccc(F)cc2)CCC/C1=C\c1ccc(F)cc1 | > 23.4 µM | > 23.4 µM | –
CC1(C)O[C@@H](CP(c2cccc3ccccc23)c2cccc3ccccc23)[C@H](CP(c2cccc3ccccc23)c2cccc3ccccc23)O1 | > 200 µM | > 200 µM | –
Cn1nc(-c2ccccc2)c(C(=O)/C=C/c2ccc(Cl)cc2)c(N2CCCC2)c1=O | > 15.1 µM | 10.7 µM | –
CCc1cccc(CC)c1NC(=O)C1=C(C)NC(C)=C(C(=O)Nc2c(CC)cccc2CC)C1c1ccc2c(c1)OCO2 | > 44.7 µM | 23.4 µM | –
Cc1nc(N)nc(N)c1N1CCN(c2ccc(N)cc2)CC1 | > 200 µM | 2.82 µM | –
O=P(O)(O)CN1CCN(CP(=O)(O)O)CCN(CP(=O)(O)O)CCN(CP(=O)(O)O)CC1 | > 100 µM | 20.4 µM | –
Cn1nc2ccc3nccc(N(CCO)CCO)c3c2n1 | > 631 µM | 31.6 µM | –
Nc1c(O)cc(N=C2C(=O)C=CC=C2C(=O)O)c(O)c1C(=O)O | – | – | inactive
CC(C)CC(NC(=O)C(Cc1ccccc1)NC(=O)[C@H]1CC[C@H](NC(=O)C(N)Cc2ccc(O)cc2)C1)C(N)=O (stereo not given in full) | – | – | inactive
COc1ccc(C2=C(N)c3c(OC)cccc3C2=O)cc1 | > 200 µM | > 200 µM | –
CCOC(=O)C(C(=O)OCC)C(=S)NC1OC(COC(C)=O)C(OC(C)=O)C(OC(C)=O)C1OC(C)=O (stereo not given) | > 200 µM | > 200 µM | –
CC(C)N1CC2CC(CN(C(=O)c3ccccc3)C2)C1 | > 676 µM | > 676 µM | –
O=[N+]([O-])c1ccc(C2CC(c3ccccc3)=Nc3ccccc3S2)cc1 (stereo not given) | > 35.5 µM | 5.75 µM | –
CCCC(C)(COC(N)=O)COC(=O)NC1CC1 (stereo not given) | > 200 µM | > 200 µM | –
O=S(=O)(c1ccccc1)C1(Sc2ccccc2)CC=CC1 | > 81.3 µM | 51.3 µM | –
CC(NC(=O)CNC(=O)C(N)CO)C(=O)NC(CCC(N)=O)C(=O)NC(CCC(=O)O)C(=O)NC(C)C(=O)NC(CCCCN)C(=O)NC(CCC(=O)O)C(=O)NC(CCC(N)=O)C(=O)NC(CCCN=C(N)N)C(=O)NC(C(=O)NC(CC(N)=O)C(=O)NC(C)C(=O)NC(Cc1cnc[nH]1)C(=O)NC(CO)C(=O)O)C(C)O (stereo not given) (H-SGAQEAKEQRTNAHS-OH; configuration not given here) | > 100 µM | > 100 µM | –
COC(=O)/C=C(\C(=O)OC)c1c2c3c(cc(OC)c(OC)c3c3ccccc13)CCN2C | – | – | inactive
C[N+]12CCCCC1C(CN1C(=O)c3ccccc3C1=O)CCC2 (stereo not given) | 58.9 µM | > 200 µM | –
O=C(C(c1ccccc1)c1ccccc1)C(O)(c1ccccc1)c1ccccc1 | 30.9 µM | 34.7 µM | –

SMILES | EC50 | IC50 | outcome
COc1cc(COC(=O)N2CCCCC2C(=O)O)c([N+](=O)[O-])cc1OC (stereo not given) | > 676 µM | 457 µM | –
COC(=O)[C@]1(c2ccc(N(C)C)cc2OC)C[C@@H]2CCCN(CCc3c1[nH]c1ccccc31)C2 | – | – | inactive
O=C1NC(N/N=C\C(O)C(O)C(O)C(O)CO)=N/C1=C/c1ccc(Cl)cc1 (stereo not given) | > 200 µM | 61.7 µM and 37.2 µM | –
O=c1[nH]nc(CNc2ccc(Cl)cc2Cl)c2ccccc12 | 55 µM | 58.9 µM | –
OC(CCN1CCCCCC1)(Cc1ccccc1)c1ccccc1 (stereo not given) | > 200 µM | 81.3 µM | –
CN(C)/C=N/NC(=O)C(O)(c1ccccc1)c1ccccc1 | > 200 µM | > 200 µM | –
Cc1cc(N(CCC#N)CCC#N)ccc1/C(N=Nc1ccc(C(=O)O)cc1)=N\NC(=O)c1cc(Cl)ccc1O | > 200 µM | 112 µM | –
COc1ccc(C(=C(I)c2ccccc2)c2ccc(OC)cc2)cc1 | > 200 µM | 182 µM | –
COc1ccc(Cc2c[n+](C)cc3cc(N=O)c(OC)cc23)cc1O | > 200 µM | > 200 µM | –
CCOC(=O)/C(=C/c1cn(C(C)=O)c2ccccc12)P(=O)(OC)OC | > 200 µM | 72.4 µM | –
CC12CCC(c3no[n+]([O-])c31)C2(C)C (stereo not given) | > 200 µM | 110 µM | –
C=C(C(=O)OC)c1cc2ccccc2n1S(=O)(=O)c1ccccc1 | > 20 µM | 3.02 µM | –
O=C1c2ccc(O)cc2OC(c2cc(O)c(O)c(O)c2)C1O (stereo not given) | > 200 µM | 11.7 µM | –
O=c1cc(N2CCN(c3cc(=O)n4ccccc4n3)CC2)oc2ccccc12 | > 200 µM | > 200 µM | –
O=C(O)c1cc2cccc(O)c2cc1O | > 200 µM | > 200 µM | –
CC(C)(C)[Si](C)(C)OC1(CCc2ccccc2OS(=O)(=O)C(F)(F)F)CCCC=C1COCc1ccccc1 (stereo not given) | > 200 µM | 39.8 µM | –
COc1cccc(C=C(C(C)=O)C(C)=O)c1 | > 120 µM | 58.9 µM | –
CCOC(=O)c1c(SCc2ccccc2)nc2c3ccccc3ccn12 | > 151 µM | > 151 µM | –
O=C(O)c1ccc([N+](=O)[O-])cc1S(=O)(=O)O | > 200 µM | > 200 µM | –
CCOC(=O)c1cccc(=O)c(C(=O)OCC)c1 | – | – | inactive
